From article PMC8625693, “Synthesis and Structure-Activity Relationships of New 2-Phenoxybenzamides with Antiplasmodial Activity” (Pharmaceuticals, 2021)
Read-outs that look alike come from different tables or passages of the source.

Assays:
[1] = test system: P. falciparum NF54; experiment: In vitro microplate assay against P. falciparum NF54 (3H-hypoxanthine incorporation, erythrocytic stages); assay type: cell-based, Plasmodium falciparum; settings: average of four determinations, read-out: P.f. NF54 IC50
Description: (§1) All newly synthesized compounds were tested for their antiplasmodial activity against the chloroquine-sensitive strain Plasmodium falciparum NF54. Cytotoxicity was determined using rat skeletal myofibroblasts (L-6 cells). As standards chloroquine and podophyllotoxin were used.
In vitro activity against erythrocytic stages of P. falciparum was determined with a ^3H-hypoxanthine incorporation assay, using the chloroquine sensitive NF54 strain [44]. Chloroquine (Sigma C6628) was used as standard. Test compounds were dissolved in DMSO at 10 mg/mL and added to parasite cultures incubated in RPMI 1640 medium without hypoxanthine, supplemented with HEPES (5.94 g/L, NaHCO3 (2.1 g/L), neomycin (100 U/mL), Albumax (5 g/L) and washed human red blood cells A^+ at 2.5% hematocrit (0.3% parasitemia). Serial drug dilutions of 11 3-fold dilution steps (covering a range from 100–0.002 µg/mL) were prepared. The 96-well plates were incubated at a humidified atmosphere at 37 °C; 4% CO2, 3% O2, 93% N2. After 48 h, 0.05 mL of ^3H-hypoxanthine (=0.5 µCi) was added to each well. The plates were incubated for another 24 h under the same conditions. Then, the plates were harvested with a Betaplate cell harvester (Wallac, Zurich, Switzerland). The red blood cells were transferred onto glass fiber filter and washed with distilled water. The dried filters were inserted into a plastic foil with 10 mL of scintillation fluid and counted in a Betaplate liquid scintillation counter. IC50 values were determined from sigmoidal inhibition curves by linear regression using Microsoft Excel. Chloroquine was used as control.

[2] = In vitro cytotoxicity with L-6 cells (Alamar Blue); assay type: cell-based, rat; settings: rat, Cytotoxicity L-6 Cells IC50
Description: as §1
(§2) In vitro cytotoxicity was determined using a primary cell line of rat skeletal myofibroblasts. The assay was performed in 96-well microtiter plates, each well containing 0.1 mL of RPMI 1640 medium, supplemented with 0.1% L-glutamine (200 mM) and 10% fetal bovine serum, as well as 4000 L-6 cells. Serial drug dilutions of 11 3-fold dilution steps (covering a range from 100–0.002 µg/mL) were prepared. After 70 h of incubation time, the plates were inspected under an inverted microscope to ensure sterile conditions and growth of the controls. […] Podophyllotoxin (Sigma P4405) was used as control.

[3] = Parallel artificial membrane permeability assay (PAMPA); settings: pH 7.4
Description: The PAMPA was performed using a Corning Gentest Pre-coated PAMPA Plate System at a pH of 7.4. It consists of 96-well polystyrene plates, whereas the donor-plate (bottom plate) is a conventional 96-well microtiter plate. The base of the acceptor-plate (top plate) consists of a porous membrane. The pores are lined with a lipid-oil-lipid trilayer. Stock solutions (10 mM) of each test compound were prepared in DMSO or MeOH and then further diluted to a final concentration of 200 µM with phosphate-buffered saline (PBS) at a pH of 7.4. Compound solutions were then added to the wells of the donor plate and pure PBS was added to each well of the acceptor plate. Compounds and negative control (pure PBS) were tested in quadruplicates. Donor and acceptor plate were coupled and incubated at ambient temperature for 5 h. After that, the plates were separated and solutions from each well of both plates were transferred onto 96-well UV-Star Microplates (Greiner Bio-One). The UV-absorption was measured at different wavelengths (between 200 and 300 nm) by a SpectraMax M3 UV plate reader (Molecular Devices). The concentrations were received from a calibration curve for each substance. The plates were analyzed at a wavelength were the R^2 value of the calibration curve was higher than 0.99 [48]. […] (2) cequ=cDt* VD+cAt* VA/VD+VA where: • cD(t)—compound concentration in donor well at time t.
Recovery of compounds from donor and acceptor wells (mass retention) was calculated as shown in the equation below. Data were only accepted when recovery exceeded 70%. (3) R=1−cDt∗ VD+cAt∗ VA/c0∗ VD where: • R—mass retention (%); • cA(t)—compound concentration in acceptor well at time t; • cD(t)—compound concentration in donor well at time t; • c0—initial compound concentration in donor well; • VD—donor well volume; • VA—acceptor well volume.

[4] = target: T1, CYP3A4 (Homo sapiens, UniProt P08684); experiment: Cytochrom P450 3A4 inhibition assay (P450-Glo, luciferin-IPA); assay type: in vitro ADME; settings: recombinant human CYP3A4 Supersomes (+ oxidoreductase + b5), probe luciferin-IPA, stock solutions diluted to 20 µM, pH 7.4, triplicate
T1 construct: purchased Corning, Glendale, AZ, USA
T1 sequence (P08684 2-503 limits assumed): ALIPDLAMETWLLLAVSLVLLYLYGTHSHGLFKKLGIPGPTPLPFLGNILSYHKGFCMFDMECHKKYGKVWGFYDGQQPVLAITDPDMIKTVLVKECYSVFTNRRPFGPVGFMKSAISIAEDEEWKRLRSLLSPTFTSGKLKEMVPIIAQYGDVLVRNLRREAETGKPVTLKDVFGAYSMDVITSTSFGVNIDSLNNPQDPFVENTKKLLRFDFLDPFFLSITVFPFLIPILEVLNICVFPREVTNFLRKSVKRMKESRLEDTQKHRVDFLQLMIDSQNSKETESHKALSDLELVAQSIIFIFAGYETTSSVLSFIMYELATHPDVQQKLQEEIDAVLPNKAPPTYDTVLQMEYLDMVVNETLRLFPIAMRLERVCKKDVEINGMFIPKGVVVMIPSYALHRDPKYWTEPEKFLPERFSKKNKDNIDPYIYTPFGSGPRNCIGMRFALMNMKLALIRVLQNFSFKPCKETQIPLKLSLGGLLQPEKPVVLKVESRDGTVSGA
Description: The CYP3A4 inhibition assay was performed using 96-well White Plates (Greiner Bio-One) at a pH of 7.4. […] Stock solutions were further diluted to a final concentration of 20 µM using water (HPLC grade). The luciferin IPA stock solution (3 mM) was diluted to a final concentration of 0.3 mM using water (HPLC grade). The CYP3A4 reaction mixture was prepared by mixing water (HPLC grade) with potassium phosphate buffer (1 M), luciferin IPA (0.3 mM) and CYP3A4 membrane (1 pmol/µL). The control reaction mixture was prepared using water (HPLC grade), potassium phosphate buffer (1 M), luciferin IPA (0.3 mM) and membrane without CYP activity (1 pmol/µL). Solutions A and B of the NADPH regeneration system were mixed and HPLC grade water was added. The reconstituted luciferin detection reagent was prepared by mixing the reconstituted buffer with esterase with the luciferin detection reagent. Then, solutions of test compounds and standard were added to the wells of the 96-well White Plate, each was tested in triplicate. The CYP3A4 reaction mixture was added to each well and the plate was incubated for 10 min at room temperature. After that, the NADPH regeneration system was added, inducing the reaction followed by an incubation time of 10 min at ambient temperature. By adding the reconstituted luciferin detection reagent, the reaction was terminated, and a luminescent signal was formed. Luminescence was measured by a SpectraMax M3 UV plate reader (Molecular Devices). The relative light units (RLU) were received from a calibration curve with beetle luciferin. […] The CYP3A4 inhibition (%) was calculated from the RLU.

[5] = test system: P. falciparum 3D7-A10; set-up: method as in PMID 31813848, PMID 32682267; settings: erythrocytic cycle of 40 h, different drug concentrations; cited from earlier work
[6] = test system: P. falciparum; settings: long-term in vitro, sub-lethal doses, cited from earlier work
[7] = test system: L-6 cells; experiment: In vitro cytotoxicity with L-6 cells (Alamar Blue); assay type: cell-based, rat; settings: rat, 72 h
Description: as §1, §2

[8] = Plasmodium falciparum, NF54, chloroquine-sensitive strain NF54, blood stages
[9] = chloroquine-sensitive strain NF54, blood stages

SMILES | IC50 [1, 8] [µM] | IC50 at 72 h [2] [µM] | Papp at 5 h, 200 µM [3] [×10⁻⁶ cm/s] | inhibition at 10 min, 20 µM [4] [%] | stage specific activity [5] | resistance development [6] | resistance development ([6]; listed as MMV030666) | IC50 [1, 9] [µM] | IC50 [7] [µM] | melting point [°C] | IC50 ([1]; chloroquine-sensitive strain NF54, blood stages, H, N-pivaloylpiperazinyl) [µM]
CC(C)(C)OC(=O)N1CCN(c2ccccc2NC(=O)c2cccc(C(F)(F)F)c2Oc2ccc(F)cc2)CC1 [Compound 1, tert-Butyl-4-{2-[2-(4-fluorophenoxy)-3-(trifluoromethyl)benzamido]phenyl}piperazine-1-carboxylate] | 0.413 | 131 | 2.37 | 87 | peak activity in sub-micromolar concentrations on late stage trophozoites | did neither acquire resistances, nor cross-resistances | development of resistant parasites could not be observed |  |  |  | 
O=CN1CCN(c2ccccc2NC(=O)c2cccc(C(F)(F)F)c2Oc2ccc(F)cc2)CC1 [Compound 18, 2-(4-Fluorophenoxy)-N-[2-(4-formylpiperazin-1-yl)phenyl]-3-(trifluoromethyl)benzamide] | 6.58 to 15.6 | 31.8 to 35.4 | 1.05 | 82 |  |  |  | 6.58 | 31.8 |  | 
CC(C)(C)C(=O)N1CCN(c2ccccc2NC(=O)c2cccc(C(F)(F)F)c2Oc2ccc(F)cc2)CC1 [Compound 19, N-{2-[4-(2,2-Dimethylpropanoyl)piperazin-1-yl]phenyl}-2-(4-fluorophenoxy)-3-(trifluoromethyl)benzamide] | 0.617 to 0.659 | 185 to 190 | 0.23 | 94 |  |  |  | 0.617 | 185 |  | 
CC(C)(C)N1CCN(c2ccccc2NC(=O)c2cccc(C(F)(F)F)c2Oc2ccc(F)cc2)CC1 [Compound 20, 2-(4-Fluorophenoxy)-N-[2-(4-tert-butylpiperazin-1-yl)phenyl]-3-(trifluoromethyl)benzamide] | 2.89 | 34.7 | 2.48 |  |  |  |  |  |  | 142 to 145 | 
CC(C)(C)C(=O)N1CCN(c2ccc(NC(=O)c3cccc(C(F)(F)F)c3Oc3ccc(F)cc3)cc2)CC1 [Compound 39, N-{4-[4-(2,2-Dimethylpropanoyl)piperazin-1-yl]phenyl}-2-(4-fluorophenoxy)-3-(trifluoromethyl)benzamide] |  | 78 to 99.6 | 0.24 | 89 |  |  |  | 0.58 | 99.6 |  | 0.269
CC(C)(C)OC(=O)N1CCN(c2ccc(NC(=O)c3cccc(C(F)(F)F)c3Oc3ccccc3)cc2)CC1 [Compound 54, tert-Butyl-4-{4-[2-phenoxy-3-(trifluoromethyl)benzamido]phenyl}piperazine-1-carboxylate] | 1.22 | 124 | 1.22 | 80 |  |  |  |  | 185 |  | 
CC(C)(C)C(=O)N1CCN(c2ccccc2NC(=O)c2cccc(C(F)(F)F)c2Oc2ccccc2)CC1 [Compound 56, N-{2-[4-(2,2-Dimethylpropanoyl)piperazin-1-yl]phenyl}-2-phenoxy-3-(trifluoromethyl)benzamide] | 0.617 to 0.659 | 185 to 190 | 0.11 |  |  |  |  | 0.659 | 190 |  | 
